Results: ChEMBL document CHEMBL1201862, “PubChem BioAssay data set” (2004)
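These data come from cells grown in 96-well plates and exposed to compound for 48 hours at five concentrations. Abbreviation: GI50, concentration required for 50% inhibition of growth.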 Calls of active or inactive are those of the source. Rule as the data show it: active = GI50 up to about 1.1 µM and inactive = higher.

Assays:
Assay in all cases: DTP human tumour cell line panel, 48 h
HCC 2998 = tested on: HCC 2998
SK-MEL-28 = tested on: SK-MEL-28
786-0 = tested on: 786-0
NCI-H460 = tested on: NCI-H460
UACC-62 = tested on: UACC-62
SNB-75 = tested on: SNB-75
LOX IMVI = tested on: LOX IMVI
CCRF-CEM = tested on: CCRF-CEM
OVCAR-5 = tested on: OVCAR-5
HCT-15 = tested on: HCT-15
NCI-H522 = tested on: NCI-H522
OVCAR-8 = tested on: OVCAR-8
HOP-92 = tested on: HOP-92
U-251 = tested on: U-251
RXF 393 = tested on: RXF 393
ACHN = tested on: ACHN
M14 = tested on: M14
K562 = tested on: K562
SK-MEL-2 = tested on: SK-MEL-2
A498 = tested on: A498

Q: How did the GI50 (HCC 2998) turn out when `COc1ccc2c(C3(O)CCNCC3)c[nH]c2c1` was run?
A: > 100 µM (inactive)

Q: What about the GI50 (SK-MEL-28) of the same molecule?
A: > 100 µM (inactive)

Q: What about the GI50 (786-0) of the same molecule?
A: > 100 µM (inactive)

Q: And the GI50 (NCI-H460)?
A: > 100 µM (inactive)

Q: What about the GI50 (UACC-62) of the same molecule?
A: > 100 µM (inactive)

Q: What about the GI50 (SNB-75) of the same molecule?
A: > 100 µM (inactive)

Q: And the GI50 (LOX IMVI)?
A: > 100 µM (inactive)

Q: What about the GI50 (CCRF-CEM) of the same molecule?
A: > 100 µM (inactive)

Q: And the GI50 (OVCAR-5)?
A: > 100 µM (inactive)

Q: What about the GI50 (HCT-15) of the same molecule?
A: > 100 µM

Q: And the GI50 (NCI-H522)?
A: > 100 µM (inactive)

Q: What about the GI50 (OVCAR-8) of the same molecule?
A: > 100 µM (inactive)

Q: What about the GI50 (HOP-92) of the same molecule?
A: > 100 µM (inactive)

Q: And the GI50 (U-251)?
A: > 100 µM (inactive)

Q: What about the GI50 (RXF 393) of the same molecule?
A: > 100 µM (inactive)

Q: And the GI50 (ACHN)?
A: > 100 µM (inactive)

Q: And the GI50 (M14)?
A: > 100 µM (inactive)

Q: And the GI50 (K562)?
A: > 100 µM (inactive)

Q: What about the GI50 (SK-MEL-2) of the same molecule?
A: > 100 µM (inactive)

Q: How did the GI50 (HCC 2998) turn out when `C=C1C[C@]23C[C@@]1(O)CC[C@H]2[C@@]12C=C[C@H](O)[C@@](C)(C(=O)O1)[C@H]2[C@@H]3C(=O)O` [GIBBERELLIN A3] was run?
A: > 100 µM (inactive)

Q: And the GI50 (SK-MEL-28)?
A: > 100 µM (inactive)

Q: And the GI50 (786-0)?
A: > 100 µM (inactive)

Q: And the GI50 (NCI-H460)?
A: > 100 µM (inactive)

Q: What about the GI50 (UACC-62) of the same molecule?
A: > 100 µM (inactive)

Q: And the GI50 (SNB-75)?
A: > 100 µM (inactive)

Q: And the GI50 (LOX IMVI)?
A: > 100 µM (inactive)

Q: And the GI50 (CCRF-CEM)?
A: > 100 µM (inactive)

Q: And the GI50 (OVCAR-5)?
A: > 100 µM (inactive)

Q: What about the GI50 (HCT-15) of the same molecule?
A: > 100 µM

Q: And the GI50 (NCI-H522)?
A: > 100 µM (inactive)

Q: And the GI50 (HOP-92)?
A: > 100 µM (inactive)

Q: What about the GI50 (U-251) of the same molecule?
A: > 100 µM (inactive)

Q: What about the GI50 (RXF 393) of the same molecule?
A: > 100 µM (inactive)

Q: What about the GI50 (M14) of the same molecule?
A: > 100 µM (inactive)

Q: What about the GI50 (K562) of the same molecule?
A: > 100 µM (inactive)

Q: What about the GI50 (SK-MEL-2) of the same molecule?
A: > 100 µM (inactive)

Q: Which results are given for `COC(=O)N(C(=O)OC)C(C(=O)O)C(C)C` (stereo not drawn)?
A: GI50 (HCC 2998): > 100 µM (inactive); GI50 (SK-MEL-28): > 100 µM (inactive); GI50 (786-0): > 100 µM (inactive); GI50 (NCI-H460): > 100 µM (inactive); GI50 (SNB-75): > 100 µM (inactive); GI50 (LOX IMVI): > 100 µM (inactive); GI50 (OVCAR-5): > 100 µM (inactive); GI50 (NCI-H522): > 100 µM (inactive); GI50 (OVCAR-8): > 100 µM (inactive); GI50 (HOP-92): 95.9 µM (inactive); GI50 (U-251): > 100 µM (inactive); GI50 (RXF 393): 65 µM (inactive); GI50 (ACHN): > 100 µM (inactive); GI50 (M14): > 100 µM (inactive); GI50 (SK-MEL-2): > 100 µM (inactive)

Q: Which results are given for `O=C1Nc2ccc(Br)cc2/C1=N/Nc1ccc([N+](=O)[O-])cc1[N+](=O)[O-]`?
A: GI50 (HCC 2998): 10.2 µM (inactive); GI50 (SK-MEL-28): 3.33 µM (inactive); GI50 (786-0): 2.77 µM (inactive); GI50 (UACC-62): 3.85 µM (inactive); GI50 (SNB-75): 4.1 µM (inactive); GI50 (LOX IMVI): 1.73 µM (inactive); GI50 (CCRF-CEM): 3.02 µM (inactive); GI50 (HCT-15): 3.12 µM; GI50 (NCI-H522): 2.42 µM (inactive); GI50 (OVCAR-8): 3.93 µM (inactive); GI50 (HOP-92): 1.98 µM (inactive); GI50 (U-251): 4.22 µM (inactive); GI50 (RXF 393): 4.15 µM (inactive); GI50 (ACHN): 2.82 µM (inactive); GI50 (M14): 4.8 µM (inactive); GI50 (K562): 3.05 µM (inactive); GI50 (SK-MEL-2): 2.13 µM (inactive)

Q: With `CCCCC#COS(=O)(=O)c1ccc(C)cc1` as the molecule, how does the GI50 (HCC 2998) read?
A: > 100 µM (inactive)

Q: And the GI50 (786-0)?
A: > 100 µM (inactive)

Q: What about the GI50 (NCI-H460) of the same molecule?
A: 79.3 µM (inactive)

Q: And the GI50 (UACC-62)?
A: > 100 µM (inactive)

Q: What about the GI50 (LOX IMVI) of the same molecule?
A: > 100 µM (inactive)

Q: What about the GI50 (CCRF-CEM) of the same molecule?
A: 30.5 µM (inactive)

Q: And the GI50 (OVCAR-5)?
A: > 100 µM (inactive)

Q: And the GI50 (HCT-15)?
A: > 100 µM

Q: What about the GI50 (NCI-H522) of the same molecule?
A: 54.1 µM (inactive)

Q: And the GI50 (OVCAR-8)?
A: > 100 µM (inactive)

Q: And the GI50 (U-251)?
A: 86.5 µM (inactive)

Q: What about the GI50 (A498) of the same molecule?
A: > 100 µM (inactive)

Q: What about the GI50 (ACHN) of the same molecule?
A: 71.1 µM (inactive)

Q: And the GI50 (M14)?
A: > 100 µM (inactive)

Q: What about the GI50 (K562) of the same molecule?
A: 45.3 µM (inactive)

Q: What about the GI50 (SK-MEL-2) of the same molecule?
A: > 100 µM (inactive)

Q: Which GI50 (HCC 2998) does the source give for `C=C(C)C(O)C(O)C[C@@H](C)C1CC[C@]23C[C@]12CCC1[C@@]2(C)CCC(OC(C)=O)C(C)(C)C2CC(OC2OC(CO)C(O)C(O)C2O)[C@]13C` (stereo partly drawn) here?
A: 15.7 µM (inactive)

Q: And the GI50 (SK-MEL-28)?
A: 22.5 µM (inactive)

Q: And the GI50 (786-0)?
A: 19.1 µM (inactive)

Q: And the GI50 (NCI-H460)?
A: 17.9 µM (inactive)

Q: What about the GI50 (UACC-62) of the same molecule?
A: 17.7 µM (inactive)

Q: And the GI50 (SNB-75)?
A: 19.6 µM (inactive)

Q: And the GI50 (LOX IMVI)?
A: 17.6 µM (inactive)

Q: What about the GI50 (CCRF-CEM) of the same molecule?
A: 14.2 µM (inactive)

Q: And the GI50 (OVCAR-5)?
A: 20.9 µM (inactive)

Q: What about the GI50 (HCT-15) of the same molecule?
A: 40.9 µM

Q: What about the GI50 (NCI-H522) of the same molecule?
A: 17 µM (inactive)

Q: What about the GI50 (OVCAR-8) of the same molecule?
A: 19.5 µM (inactive)

Q: What about the GI50 (HOP-92) of the same molecule?
A: 12.9 µM (inactive)

Q: And the GI50 (U-251)?
A: 15.7 µM (inactive)

Q: What about the GI50 (RXF 393) of the same molecule?
A: 15.4 µM (inactive)

Q: And the GI50 (ACHN)?
A: 31.6 µM (inactive)

Q: And the GI50 (M14)?
A: 15.2 µM (inactive)

Q: What about the GI50 (K562) of the same molecule?
A: 20.1 µM (inactive)

Q: And the GI50 (SK-MEL-2)?
A: 16.6 µM (inactive)
